“Also recorded” adds a separate entry of the source.
Experiments:
[1] = Exposure at room temperature to variable relative humidity for 12 days and to RH 80% for 5 months; type: physicochemical
Source text: The polymorph obtained with the procedure described in example 2 was exposed at room temperature to variable relative humidity for a time period of 12 days, and then for a period of 5 months. When the humidity was increased, there were increases in the mass as shown in Table 2 for 12 days and Table 3 for 5 months.

[2] = Stability testing following conditioning in a humid atmosphere (80% RH, 24 hours); type: physicochemical; conditions: 80% relative humidity
Experimental: Stability testing of the polymorph of Rifaximin following conditioning in a humid atmosphere.
Two samples of the polymorphic form κ of Rifaximin: 63/11A, which was obtained by means of the procedure of example 4, and 69/11B, which was obtained by means of the procedure of example 1, were maintained for 24 hours in an environment of relative humidity equal to 80%. At the end of the conditioning, an increase of approximately 3%, ascribable to the adsorption of water from the environment, was recorded.

- % water after exposure to 80% humidity (RH 80%) ([1]; 1 month): 4.38%
- % water after exposure to 80% humidity (RH 80%) ([1]; 2 months): 4.45%
- % water after exposure to 80% humidity (RH 80%) ([1]; 5 months): 4.55%
- value at which the increase of mass becomes stable ([1]; 80% humidity, stable after 4 days, unchanged after 5 months): approximately 4.5%
- % water after exposure to 80% humidity (RH 80%) ([1]; 4 days): 4.38%
- % water after exposure to 80% humidity (RH 80%) ([1]; 7 days): 4.44%
- % water after exposure to 80% humidity (RH 80%) ([1]; 14 days): 4.37%
- % water following exposure to 80% and 45% humidity ([1]; RH 80% 4 days, total days 4): 4.66%
- DRX pattern after conditioning ([1]; RH 80%, 5 months): correspond to that one shown in FIG. 1
- nature of the water adsorption process ([1]; cycling between RH 80% and RH 45%, 12 days): superficial and reversible
- % water after exposure to 80% humidity (RH 80%) ([1]; initial): 1.85%
- % water following exposure to 80% and 45% humidity ([1]; initial, total days 0): 1.85%
- maximum adsorption ([1]; prolonged exposure to relative humidity of 80%): 4.5%
- % water following exposure to 80% and 45% humidity ([1]; then RH 45% 1 day, total days 12): 3.43%
- % water following exposure to 80% and 45% humidity ([1]; then RH 45% 3 days, total days 7): 3.40%
- % water following exposure to 80% and 45% humidity ([1]; then RH 80% 4 days, total days 11): 4.52%
- increase of mass of the sample (adsorption of water) [2]: about 3%
- increase of mass of the sample (adsorption of water) ([2]; listed as 63/11A): approximately 3%
- increase of mass of the sample (adsorption of water) ([2]; listed as 69/11B): approximately 3%
SMILES: CO[C@H]1/C=C/O[C@@]2(C)Oc3c(C)c(O)c4c(O)c(c5c(nc6cc(C)ccn65)c4c3C2=O)NC(=O)/C(C)=C\C=C\[C@H](C)[C@H](O)[C@@H](C)[C@@H](O)[C@@H](C)[C@H](OC(C)=O)[C@@H]1C [polymorph κ, (2S,16Z,18E,20S,21S,22R,23R,24R,25S,26S,27S,28E)-5,6,21,23,25-pentahydroxy-27-methoxy-2,4,11,16,20,22,24,26-octamethyl-2,7-(epoxypentadeca-[1,11,13]-trienimmino)-benzofuro-[4,5-e]-pirido-[1,2-α]-benzimidazol-1,15(2H)-dione,25-acetate]
- XRPD pattern pre/post-conditioning [2]: substantially identical to one another; also recorded: without registering significant changes in the XRPD pattern

Reference: patent US8877770B2, “Polymorph of rifaximin and process for the preparation thereof” (Clarochem Ireland Limited, priority 2011, dated 2014)
